Like-named read-outs stand apart in the source and are kept apart here.
Tests used:
[1] = tested on: Enterococcus faecalis; test: Agar disk diffusion on urine cultures, Enterococcus faecalis; format: cell-based
Excerpt: (§1) Agar disk diffusion testing was used for antimicrobial susceptibility testing. The test provides qualitative results by categorizing susceptible, intermediate or resistant bacteria. Agar disk diffusion testing cannot distinguish bactericidal and bacteriostatic effects. Moreover, the agar disk-diffusion method is not appropriate to determine the minimum inhibitory concentration (MIC), as it is impossible to quantify the amount of the antimicrobial agent diffused into the agar medium. The advantages of this method, mainly simplicity and low cost, have contributed to its common use for the antimicrobial screening of plant extracts, essential oils, and other drugs.
(§2) The study has been performed on 47 urine samples collected from patients diagnosed with urinary tract infection (UTI), before instituting any type of therapy. Several types of pathogens were identified from the urine cultures performed: Escherichia coli-34 cases; Klebsiella pneumoniae-six cases; Proteus mirabilis-one case; Staphylococcus haemolyticus-one case; Enterococcus faecalis-two cases; Candida albicans-three cases. The susceptibility testing of the pathogens has been performed using DCB-impregnated microdisks to identify the optimal value that induces a significant inhibition of microbial culture development, compared to certified antibiotic/antifungal microdisks. The antibiogram/antifungal was performed on the Müller-Hinton (MH)/Sabouraud medium, and the results obtained using DCB-impregnated microdisks are presented in the Table 7, compared to the action of the reference microdisks.

[2] = tested on: Staphylococcus haemolyticus; test: Agar disk diffusion on urine cultures, Staphylococcus haemolyticus; format: cell-based
Excerpt: as §1, §2

[3] = tested on: Candida albicans; test: Agar disk diffusion on urine cultures, Candida albicans; format: cell-based
Excerpt: as §1, §2

[4] = DPPH scavenging assay; format: biochemical
[5] = tested on: Proteus mirabilis; test: Agar disk diffusion on urine cultures, Proteus mirabilis; format: cell-based
Excerpt: as §1, §2

[6] = tested on: pathogens identified from urine cultures of patients with urinary tract infection; test: Antibiotic/antifungal screening on urine cultures, all pathogens together; format: cell-based
Excerpt: as §1
as §2, with “The antibiogram/antifungal was performed on the Müller-Hinton (MH)/Sabouraud medium, and the results obtained using DCB-impregnated microdisks are presented in the Table 7, compared to the action of the reference microdisks.” left out

[7] = format: in vitro ADME
Excerpt: FIG. 11 is the in vitro simulation of DCB digestion: stomach (gastric phase, at pH 1.2 and pH 4.5) and duodenum (small intestinal phase, at pH 7.2). (DCB: Chlorogenoborate diester complex);
DCB is protected from acids or/and enzymes in the stomach and small intestine. Chlorogenic acids are, generally, resistant to acid environment and digestive enzymes. […] The DCB complex is dissociated in the colon by borate group transfer to cis-diol sugars, e.g., fructose and sialic acid, in bacteria in the microbiome in the gut mucus membrane. The sugar/borate complexes have a high association constant. […] At a gastric pH of 1.2, DCB undergoes about 50% degradation. When there is food in the stomach, after a meal, the stomach pH can raise to as high as 4-5. Under conditions prevailing after a meal (pH 4.5), DCB undergoes <6% degradation. Under conditions prevailing in the intestines (pH 7.2), DCB undergoes <4% degradation. Thus, when administered with a meal, DCB is protected in the gastrointestinal tract and works as a classical prebiotic. Alternatively, DCB may be administered in a dosage form with an enteric coating which is stable and protects DCB from stomach acids, but which dissolves or breaks down at pH values in the intestines. Suitable enteric polymers include methyl (meth)acrylate-(meth)acrylic acid copolymers, cellulose acetate phthalate (CAP), cellulose acetate succinate, hydroxypropyl methyl cellulose phthalate, hydroxypropyl methyl cellulose acetate succinate, polyvinyl acetate phthalate, and similar polymers.

[8] = tested on: L929 cells; format: cell-based; details: mouse, 24 h
Procedure: In vitro DCB cytotoxicity: The viability of L929 cells treated for 24 hours with different concentrations of DCB was tested by the 3-(4,5-dimethylthiazol-2-yl)-2,5-diphenyltetrazolium bromide (MTT) assay. The MTT assay is commonly used for cytotoxicity, viability, and cell proliferation studies. The treatment of cells with MTT allows the assessment of oxidative metabolism and cellular response to external factors that can have a positive or negative effect on cell survival in culture. This quantitative colorimetric method is based on the reduction of the yellow-colored compound MTT to a dark blue formazan. The reduction of MTT, achieved by mitochondrial enzymes, e.g., succinate dehydrogenase, is directly proportional to the number of viable cells, being an index of cellular/mitochondrial integrity. The optical density is evaluated spectrophotometrically, resulting in a direct relationship between absorbance, dye concentration, and the number of viable and metabolically active cells.
In multi-well plates, L929 cells were plated at a cell concentration of 10^4 cells/cm^2. MTT (1 mg/ml, in a culture medium without serum) and DCB was added to each well. […] The resulting solution was densitometered at 550 nm, there being a direct proportional relationship between the recorded optical density and the number of metabolically active cells.

[9] = tested on: Escherichia coli; test: Agar disk diffusion on urine cultures, Escherichia coli; format: cell-based
Excerpt: as §1, §2

[10] = target: acetylcholinesterase (AChE) (Homo sapiens, UniProt P22303); test: In vitro acetylcholinesterase activity assay; format: biochemical
Chain of acetylcholinesterase (AChE) (P22303 32-614, species assumed): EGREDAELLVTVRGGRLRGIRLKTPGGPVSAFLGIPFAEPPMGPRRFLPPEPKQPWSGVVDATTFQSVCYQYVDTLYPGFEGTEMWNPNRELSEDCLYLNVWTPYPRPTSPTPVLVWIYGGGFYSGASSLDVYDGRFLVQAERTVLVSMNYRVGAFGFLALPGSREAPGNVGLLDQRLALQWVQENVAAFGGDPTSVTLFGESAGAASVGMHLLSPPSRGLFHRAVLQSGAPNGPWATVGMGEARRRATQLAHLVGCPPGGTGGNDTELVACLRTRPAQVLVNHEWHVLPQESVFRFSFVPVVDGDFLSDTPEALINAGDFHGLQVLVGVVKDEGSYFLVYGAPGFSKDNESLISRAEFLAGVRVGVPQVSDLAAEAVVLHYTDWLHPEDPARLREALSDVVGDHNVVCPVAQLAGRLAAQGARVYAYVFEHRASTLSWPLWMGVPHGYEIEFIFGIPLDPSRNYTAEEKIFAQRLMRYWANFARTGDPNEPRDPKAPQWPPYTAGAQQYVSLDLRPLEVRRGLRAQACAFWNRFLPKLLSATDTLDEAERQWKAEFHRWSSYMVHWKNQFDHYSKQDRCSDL
Procedure: In the AChE assay, a reaction mixture containing DCB was incubated at 20° C. in the dark for 10 min, and 10 μL of AChE solution was then added. For measuring in vitro AChE activity, the test solutions contained DCB at various concentrations, including 5, 25, 50, 100, 200, and 400 µg/mL (FIGS. 13A and 13B). After AChE was added, the reaction mixture was incubated at 20° C. for 10 min, and the absorbance was measured at 405 nm.

[11] = tested on: BALB/c mice; test: In vivo DCB toxicity (acute, subchronic, chronic)
Procedure: (§3) In vivo DCB toxicity: The laboratory animals and the experimental protocol for determining acute, subchronic and chronic toxicity were established in accordance with the Organization for Economic Co-operation and Development (OECD) Guidelines for Testing of Chemicals. The toxicodynamic experiment was performed on groups of 10 BALB/c mice, eight weeks old, with an average weight of 25 g, the number of females and males being equally distributed (five for each group), which were administered different doses of DCB, at various intervals, as follows: • (i) for the acute experiment (at 24 hours): • (a) per os (p.o.), by oral gavage, five different doses of DCB in distilled water: 5 mg/kg body weight (b.w.), 50 mg/kg b.w., 300 mg/kg b.w., 2000 mg/kg b.w. and 5000 mg/kg b.w.; • (b) intra-peritoneal (i.p), a single dose of DCB, in saline: 50 mg/kg b.w.; • (ii) for the subacute experiment (lasting 28 days), three different daily doses of DCB in drinking water: 50 mg/kg b.w., 300 mg/kg b.w. and 1000 mg/kg b.w.; • (iii) for the chronic experiment (lasting 90 days), three different daily doses of DCB in drinking water: 50 mg/kg b.w., 300 mg/kg b.w. and 1000 mg/kg b.w. Throughout the duration of the experiment, the condition of the animals was monitored daily, at the same hour every day (during morning). Also, the animals were maintained in standard conditions of temperature, humidity, and lighting. Food and water were administered ad libitum. Standard Conditions Include: • A 14-hour light/10-hour dark cycle or 12 light/12 dark cycle; • A temperature of 65-75° F. (~18-23° C.); and • A humidity of 40-60%.
(§4) The control mice were monitored and maintained under the same conditions, only that instead of the DCB they received: • (i) for the acute experiment: (a) distilled water, p.o., by oral gavage and (b) saline, i.p., respectively; • (ii) for the subacute experiment and for the chronic one: only the drinking water normally consumed. […]

[12] = In vivo DCB toxicity (acute, subchronic, chronic); design: species or system mice; details: both sexes, BALB/c, mouse, in vivo, po; acute, p.o. administration in mice; read-out: median lethal dose (LD50)
Procedure: as §3, §4

[13] = tested on: Klebsiella pneumoniae; test: Agar disk diffusion on urine cultures, Klebsiella pneumoniae; format: cell-based
Excerpt: as §1, §2

[14] = physchem
[15] = oral exposure, within 24-96 hours of ingestion; cited from earlier work

Compound: CO[C@@]1(NC(=O)Cc2cccs2)C(=O)N2C(C(=O)O)=C(COC(N)=O)CS[C@@H]21 [Cefoxitin, reference compound]
- Inhibition diameter (Ø, mm] of microbial culture ([1]; certified microdisk): 23-26 mm
- Inhibition diameter (Ø, mm] of microbial culture ([2]; certified microdisk): 25 mm

Compound: OC(Cn1cncn1)(Cn1cncn1)c1ccc(F)cc1F [Fluconazole, reference compound]
- Inhibition diameter (Ø, mm] of microbial culture ([3]; certified microdisk): 29-33 mm

Compound: O=C(/C=C/c1ccc2c(c1)O[B-]1(O2)Oc2ccc(/C=C/C(=O)O[C@@H]3C[C@](O)(C(=O)O)C[C@@H](O)[C@H]3O)cc2O1)O[C@H]1C[C@@](O)(C(=O)O)C[C@H](O)[C@@H]1O (stereo partly shown) [DCB, diester chlorogenoborate]
- antioxidant activity relative to CA [4]: approximately six times more antioxidant activity than CA
- Inhibition diameter (Ø, mm] of microbial culture ([5]; 0.025 μM DCB microdisk): 0 mm
- Inhibition diameter (Ø, mm] of microbial culture ([5]; 2.5 μM DCB microdisk): 0 mm
- Inhibition diameter (Ø, mm] of microbial culture ([5]; 5.0 μM DCB microdisk): 15 mm
- Inhibition diameter (Ø, mm] of microbial culture ([5]; 50 μM DCB microdisk): 35 mm
- antimicrobial activity compared with certified microdisks ([6]; 50 μM DCB-impregnated microdisks): comparable to, or superior to, that of the certified microdisks
- influence on the growing pathogens ([6]; 0.025 to 2.5 μM DCB): little or no influence on the growing pathogens
- degradation ([7]; pH 1.2): about 50%
- degradation ([7]; pH 4.5): < 6%
- degradation ([7]; pH 7.2): < 4%
- impact on cell viability compared with 5% aqueous DMSO control [8]: much less impact on MTT concentration, and thus cell viability, than a negative control treated with 5% aqueous DMSO
- Inhibition diameter (Ø, mm] of microbial culture ([9]; 0.025 μM DCB microdisk): 0 mm
- Inhibition diameter (Ø, mm] of microbial culture ([9]; 2.5 μM DCB microdisk): 6-8 mm
- Inhibition diameter (Ø, mm] of microbial culture ([9]; 5.0 μM DCB microdisk): 8-14 mm
- Inhibition diameter (Ø, mm] of microbial culture ([9]; 50 μM DCB microdisk): 29-37 mm
- IC50 [10]: 39.5 µM
- factor of AChE inhibition relative to CA [10]: about 3.4
- Inhibition diameter (Ø, mm] of microbial culture ([3]; 0.025 μM DCB microdisk): 0 mm
- Inhibition diameter (Ø, mm] of microbial culture ([3]; 2.5 μM DCB microdisk): 0 mm
- Inhibition diameter (Ø, mm] of microbial culture ([3]; 5.0 μM DCB microdisk): 12-18 mm
- Inhibition diameter (Ø, mm] of microbial culture ([3]; 50 μM DCB microdisk): 37-40 mm
- Inhibition diameter (Ø, mm] of microbial culture ([1]; 0.025 μM DCB microdisk): 0 mm
- Inhibition diameter (Ø, mm] of microbial culture ([1]; 2.5 μM DCB microdisk): 0 mm
- Inhibition diameter (Ø, mm] of microbial culture ([1]; 5.0 μM DCB microdisk): 12-14 mm
- Inhibition diameter (Ø, mm] of microbial culture ([1]; 50 μM DCB microdisk): 26-29 mm
- histopathology of internal organs ([11]; acute (24 hours), subchronic (28 days) and chronic (90 days) experiments): normal aspects were highlighted for all internal organs analyzed
- acute toxicity class (OECD) ([11]; p.o. administration in mice): Category V, practically non-toxic
- LD50 at 24 h [12]: > 5000 mg/kg
- Inhibition diameter (Ø, mm] of microbial culture ([2]; 0.025 μM DCB microdisk): 0 mm
- Inhibition diameter (Ø, mm] of microbial culture ([2]; 2.5 μM DCB microdisk): 0 mm
- Inhibition diameter (Ø, mm] of microbial culture ([2]; 5.0 μM DCB microdisk): 11 mm
- Inhibition diameter (Ø, mm] of microbial culture ([2]; 50 μM DCB microdisk): 27 mm
- Inhibition diameter (Ø, mm] of microbial culture ([13]; 0.025 μM DCB microdisk): 0 mm
- Inhibition diameter (Ø, mm] of microbial culture ([13]; 2.5 μM DCB microdisk): 5-7 mm
- Inhibition diameter (Ø, mm] of microbial culture ([13]; 5.0 μM DCB microdisk): 8-15 mm
- Inhibition diameter (Ø, mm] of microbial culture ([13]; 50 μM DCB microdisk): 28-36 mm
- pKa [14]: ~4

Compound: O=C(O)c1cn(C2CC2)c2cc(N3CCNCC3)c(F)cc2c1=O [Ciprofloxacin, reference compound]
- Inhibition diameter (Ø, mm] of microbial culture ([5]; certified microdisk): 33 mm
- Inhibition diameter (Ø, mm] of microbial culture ([9]; certified microdisk): 28-35 mm
- Inhibition diameter (Ø, mm] of microbial culture ([13]; certified microdisk): 27-34 mm

Compound: OB(O)O [BA, Boric acid]
- BA absorbed [15]: 81-95%

Compound: O=C(/C=C/c1ccc(O)c(O)c1)O[C@@H]1C[C@](O)(C(=O)O)C[C@@H](O)[C@H]1O [CA, Chlorogenic acid, reference compound]
- IC50 [10]: 243 µM
- inhibition at 110 µg/mL ([10]; read-out: inhibition of AChE activity): > 80%

From patent US12721857B2 (priority 2021, dated 2026)
